Where a name gives a salt, the structure may show the parent alone.
Experiments:
writhing behavior = assay: Analgesic action by a writhing method using acetic acid; type: in vivo, Male mice of a ddY strain; settings: sc; statistically minimum effective dose; 0.6% acetic acid ip 15 minutes after the drug, writhing counted for ten minutes; mice
[1] = Muscle relaxing action (in vivo); settings: method of JP98/01481 or JP-A 10-281752
From the text: There are also shown a serotonin (5HT) receptor binding action (RBA; in vitro) and a muscle relaxing action (in vivo) measured according to a method described in JP98/01481 or JP-A 10-281752. (In the table, "n.t." means "not tested").

5HT1A = biological target: T1, 5HT1A (Homo sapiens, UniProt P08908); assay: Serotonin (5HT) receptor binding action (RBA; in vitro), 5HT1A; settings: method of JP98/01481 or JP-A 10-281752
T1 sequence (P08908 1-422): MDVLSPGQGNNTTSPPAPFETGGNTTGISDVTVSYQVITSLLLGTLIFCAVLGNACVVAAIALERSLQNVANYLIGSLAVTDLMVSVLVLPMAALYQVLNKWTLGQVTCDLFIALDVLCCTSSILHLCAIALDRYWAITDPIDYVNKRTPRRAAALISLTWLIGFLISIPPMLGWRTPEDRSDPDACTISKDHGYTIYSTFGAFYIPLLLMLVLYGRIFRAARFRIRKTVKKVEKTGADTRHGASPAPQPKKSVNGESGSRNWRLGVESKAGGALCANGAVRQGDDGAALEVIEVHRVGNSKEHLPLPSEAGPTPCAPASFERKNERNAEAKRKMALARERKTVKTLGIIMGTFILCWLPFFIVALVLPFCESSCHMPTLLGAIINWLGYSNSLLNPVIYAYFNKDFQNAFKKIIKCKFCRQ

5HT2 = 5HT2 (Homo sapiens, UniProt P28223); assay: Serotonin (5HT) receptor binding action (RBA; in vitro), 5HT2; settings: method of JP98/01481 or JP-A 10-281752
Chain of 5HT2 (P28223 whole entry, species assumed): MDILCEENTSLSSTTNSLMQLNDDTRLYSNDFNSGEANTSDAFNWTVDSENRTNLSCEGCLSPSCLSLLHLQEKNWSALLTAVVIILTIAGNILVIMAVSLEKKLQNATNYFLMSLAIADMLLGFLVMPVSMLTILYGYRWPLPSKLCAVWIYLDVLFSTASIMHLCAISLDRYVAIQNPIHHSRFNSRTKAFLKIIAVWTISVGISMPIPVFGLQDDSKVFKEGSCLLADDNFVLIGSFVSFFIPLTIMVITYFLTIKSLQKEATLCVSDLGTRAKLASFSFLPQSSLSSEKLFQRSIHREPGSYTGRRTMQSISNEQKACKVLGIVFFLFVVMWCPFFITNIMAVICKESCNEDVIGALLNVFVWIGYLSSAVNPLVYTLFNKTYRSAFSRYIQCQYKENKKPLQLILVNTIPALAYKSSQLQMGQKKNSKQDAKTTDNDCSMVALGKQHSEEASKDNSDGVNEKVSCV

SMILES	Analgesic Action (minimum effective dose) (writhing behavior) [mg/kg]	Muscle-Relaxing Action (ip) [1]	Muscle-Relaxing Action (po) [1]	Ki (5HT1A) [nM]	Ki (5HT2) [nM]
CNC(=O)Cc1ccc2ccn(C3CCN(CCc4ccc(F)cc4)CC3)c2c1 [(9), 1-[1-(4-fluorophenethyl)piperidin-4-yl]-6-(N-methylamidemethyl)indole]	1	0.3 mg/kg	3 mg/kg	–	–
CC(=O)NCc1ccc2c(c1)N(C1CCN(CCc3ccc(F)cc3)CC1)CC2 [(14), 1-[1-(4-fluorophenethyl)piperidin-4-yl]-6-(N-acetylaminomethyl)indoline]	0.3	0.3 mg/kg	0.3 mg/kg	6.43	0.43
CCCNC(=O)c1ccc(-c2cc3ccccc3c(N3CCN(CC)CC3)n2)cc1 [(18), 1-(4-ethylpiperazin-1-yl) -3-[4-(N-propylamide)phenyl]isoquinoline hydrochloride]	1	> 10 mg/kg	3 mg/kg	14.6	1.1
O=C(Cc1ccc2ccn(C3CCN(CCc4ccc(F)cc4)CC3)c2c1)NCCO [(6), 1-[1-(4-fluorophenethyl)piperidin-4-yl]-6-(N-hydroxyethylamidemethyl)indole]	> 10	–	10 mg/kg	–	–
CCN1CCN(c2nc(-c3ccc(OCCO)c(C#N)c3)cc3ccccc23)CC1.Cl [(21), 1-(4-ethylpiperazin-1-yl)-3-(3-cyano-4-hydroxyethoxyphenyl)isoquinoline hydrochloride]	1	10 mg/kg	–	13.4	4.5
CCCS(=O)(=O)NCc1ccc(-c2cc3ccccc3c(N3CCN(CC)CC3)n2)cc1Cl.Cl [(23), 1-(4-ethylpiperazin-1-yl)-3-(3-chloro-4-propylsulfonylaminomethylphenyl)isoquinoline hydrochloride]	3	–	> 30 mg/kg	0.9	0.7
CCN1CCN(c2nc(-c3ccc(OCCO)cc3)cc3ccccc23)CC1 [(16), 1-(4-ethylpiperazin-1-yl)-3-(4-hydroxyethoxyphenyl)isoquinoline]	1	1 mg/kg	3 mg/kg	31.5	4.2
CNC(=O)Cc1ccc2ccn(C3CCN(CCc4ccccc4F)CC3)c2c1 [(10), 1-[1-(2-fluorophenethyl)piperidin-4-yl]-6-(N-methylamidemethyl)indole]	3	3 mg/kg	< 1 mg/kg	4.02	1.23
CCN1CCN(c2nc(-c3ccc(CCCO)c(OC)c3)cc3ccccc23)CC1.Cl [(20), 1-(4-ethylpiperazin-1-yl)-3-(3-methoxy-4-hydroxypropylphenyl)isoquinoline hydrochloride]	3	–	10 mg/kg	7.9	10.9
CC(C)(O)COc1ccc(-c2cc3sccc3c(N3CCN(CCO)CC3)n2)cc1.Cl [(27), 4-(4-hydroxyethylpiperazin-1-yl)-6-[4-(2-hydroxy-2-methylpropoxy)phenyl]thieno[3,2-c]pyridine hydrochloride]	1	–	–	1530	0.35
CCN1CCN(c2nc(-c3ccc(CCC(C)(C)O)c(F)c3)cc3ccccc23)CC1.Cl [(19), 1-(4-ethylpiperazin-1-yl)-3-[3-fluoro-4-(3-hydroxy-3-methylbutyl)phenyl]isoquinoline hydrochloride]	1	< 10 mg/kg	3 mg/kg	31.2	0.7
CN(C)C(=O)Cc1ccc2ccn(C3CCN(CCc4ccc(F)cc4)CC3)c2c1 [(7), 1-[1-(4-fluorophenethyl)piperidin-4-yl]-6-(N,N-dimethylamidemethyl)indole oxalate]	> 10	–	–	–	–
COc1cccc(C(O)C2CCN(CCc3ccc(F)cc3)CC2)c1OC (stereo not shown) [MDL-100,907, reference compound]	3	0.3 mg/kg	1 mg/kg	–	–
CCC(=O)NCc1ccc2ccn(C3CCN(CCc4ccc(F)cc4)CC3)c2c1 [(2), 1-[1-(4-fluorophenethyl)piperidin-4-yl]-6-(N-propionylaminomethyl)indole]	3	0.3 mg/kg	3 mg/kg	1	2.6
NC(=O)Cc1ccc2ccn(C3CCN(CCc4ccc(F)cc4)CC3)c2c1 [(8), 1-[1-(4-fluorophenethyl)piperidin-4-yl]-6-amidemethylindole]	> 3	–	3 mg/kg	–	–
COc1ccc(CCN2CCC(n3ccc4ccc(CNC(C)=O)cc43)CC2)cc1 [(3), 1-[1-(4-methoxyphenethyl)piperidin-4-yl]-6-(N-acetylaminomethyl)indole]	10	–	–	0.27	> 20
CN1CC[C@]23c4c5ccc(O)c4O[C@H]2[C@@H](O)C=C[C@H]3[C@H]1C5.Cl [Morphine Hydrochloride, morphine hydrochloride, reference compound]	1	Ineffective (Strain Induced)	Ineffective (Strain Induced)	–	–
CCN1CCN(c2nc(-c3cccc(CCCO)c3)cc3ccccc23)CC1 [(22), 1-(4-ethylpiperazin-1-yl)-3-(3-hydroxypropylphenyl)isoquinoline hydrochloride]	3	–	–	54.5	17.4
O=C(Cc1ccc2ccn(C3CCN(CCc4ccccc4F)CC3)c2c1)NCCO [(12), 1-[1-(2-fluorophenethyl)piperidin-4-yl]-6-(N-hydroxyethylamidemethyl)indole]	10	–	> 10 mg/kg	–	–
CCN1CCN(c2nc(-c3ccc(OCC(C)O)cc3)cc3sccc23)CC1.Cl (stereo not shown) [(24), 4-(4-ethylpiperazin-1-yl)-6-[4-(2-hydroxypropoxy)phenyl]thieno[3,2-c]pyridine hydrochloride]	1	1 mg/kg	3 mg/kg	27.9	0.9
CC(=O)NCc1ccc2ccn(C3CCN(CCc4ccc(F)cc4)CC3)c2c1 [(1), 1-[1-(4-Fluorophenethyl)piperidin-4-yl]-6-(N-acetylaminomethyl)indole]	0.3	0.3 mg/kg	1 mg/kg	0.51	1.38
CCN1CCN(c2nc(-c3ccc(OC)cc3)cc3ccccc23)CC1 [(15), 1-(4-ethylpiperazin-1-yl)-3-(4-methoxyphenyl)isoquinoline]	3	–	–	59.9	11.1
COc1ccccc1N1CCN(CCN(C(=O)C2CCCCC2)c2ccccn2)CC1 [WAY-100,635, reference compound]	3	> 10 mg/kg	–	–	> 200
CCNC(=O)Cc1ccc2ccn(C3CCN(CCc4ccccc4F)CC3)c2c1 [(11), 1-[1-(2-fluorophenethyl)piperidin-4-yl]-6-(N-ethylamidemethyl)indole]	3	–	10 mg/kg	–	–

From patent EP1123702A1, “ANALGESICS” (Eisai Co., Ltd., priority 1998, dated 2000)
